The subject of test [1] is KLPN 8852. The experiment in a line: MIC of antibiotics alone against KLPN 8852 (Table 1). Format: cell-based, Klebsiella pneumonia. The conditions noted are these: MIC dil in Full strength MHB, antibiotic alone. Here is the method: (§1) KLPN 8852, 27025 and 24076 are carbapenemase resistant (“CRE”) strains of the common bacteria, KLPN, Klebsiella pneumonia. […] The ability of amikacin as well as three carbapenem antibiotics (meropenem, imipenem, and doripenem) to kill each of these strains was tested using minimum inhibitory concentration, or MIC, as a measure of effectiveness.

Test [2] deals with KLPN 27025. Description: MIC of antibiotics alone against KLPN 27025 (Table 1). Particulars: MIC dil in Full strength MHB, antibiotic alone. Format: cell-based, Klebsiella pneumonia. Here is the method:
as §1

Test [3] has as its system KLPN 24076. Description: MIC of antibiotics alone against KLPN 24076 (Table 1). The conditions noted are these: MIC dil in Full strength MHB, antibiotic alone. The format is cell-based, Klebsiella pneumonia. Here is the method: as §1
Test [4] relates to ACBA 1010. The experiment in a line: MIC of antibiotics alone against ACBA 1010 (Table 1). Format: cell-based, Acinetobacter baumannii. Particulars: MIC dil in Full strength MHB, antibiotic alone.
Test [5] has as its system KLPN 24076. The experiment in a line: microbe, parasite or virus in culture. The format is cell-based, Klebsiella pneumonia. The conditions noted are these: for Synergy MIC / MIC: KLPN 24076; for MIC: Klebsiella pneumoniae, agent alone, read-out: Monotherapy MIC. As to the method: (§2) The ability of B2088 [RGRKVVRR)2KK] to kill each of CRE strains KLPN 8852, 27025 and 24076 was tested by itself (as a monotherapy), as well as in combination with one of meropenem, imipenem, or doripenem (as a combination therapy) using minimum inhibitory concentration, or MIC, as a measure of effectiveness. Synergism MIC indicates the MIC of each of B2088 or the carbapenem antibiotic when used as an antibacterial composition.

Test [6] has as its system KLPN 27025. The experiment in a line: microbe, parasite or virus in culture. Format: cell-based, Klebsiella pneumonia. The conditions noted are these: for Synergy MIC / MIC: KLPN 27025; for MIC: Klebsiella pneumoniae, agent alone, read-out: Monotherapy MIC. As to the method:
as §2

Test [7] deals with KLPN 8852. The experiment in a line: microbe, parasite or virus in culture. The format is cell-based, Klebsiella pneumonia. The conditions noted are these: for Synergy MIC / MIC: KLPN 8852; for MIC: Klebsiella pneumoniae, agent alone, read-out: Monotherapy MIC. As to the method: as §2
Test [8] has as its system ACBA 1010. The experiment in a line: microbe, parasite or virus in culture. The format is cell-based, Acinetobacter baumannii. Particulars: for Synergy MIC / MIC: ACBA 1010; for MIC: Acinetobacter baumannii, agent alone, read-out: Monotherapy MIC. Here is the method:
The ability of B2088 [RGRKVVRR)2KK] to kill strain ACBA 1010 was tested by itself (as a monotherapy), as well as in combination with one of meropenem, imipenem, or doripenem (as a combination therapy) using minimum inhibitory concentration, or MIC, as a measure of effectiveness. Synergism MIC indicates the MIC of each of B2088 or the carbapenem antibiotic when used as an antibacterial composition.

Where [9] appears, read: MIC of each agent in combination B2088 + Meropenem.
Where [10] appears, read: MIC of each agent in combination B2088 + Imipenem.
Setting [11] is: MIC of each agent in combination B2088 + Doripenem.

Positions of bridges follow the written chain, without caps; N, C: chain ends. Residues, ends and D or L forms follow the SMILES beside them. Chains are numbered I, II in the order given.

As for `C[C@@H](O)[C@H]1C(=O)N2C(C(=O)O)=C(S[C@@H]3CN[C@H](C(=O)N(C)C)C3)[C@H](C)[C@H]12` [Meropenem, meropenem], the MIC was over 50 µg/mL in the test on KLPN 8852 [1]; over 50 µg/mL with KLPN 27025 [2]; over 50 µg/mL with KLPN 24076 [3]; 1.56 µg/mL in the test with ACBA 1010 [4]; over 50 µg/mL with KLPN 24076 [5]; 50 µg/mL with KLPN 27025 [6]. The MIC with KLPN 8852 [7] was over 50 µg/mL; with ACBA 1010 [8] it was 1.56 µg/mL. Besides, the “Synergy MIC” value with KLPN 24076 [5] (setting [9]) was 1 µg/mL; in the test on KLPN 27025 [6] (setting [9]), 0.007813 µg/mL; in the test with KLPN 8852 [7] (setting [9]) it was 1 µg/mL; with ACBA 1010 [8] (setting [9]), 0.5 µg/mL.

Turning to `C[C@@H](O)[C@H]1C(=O)N2C(C(=O)O)=C(SCCN=CN)C[C@H]12` [Imipenem, imipenem], the MIC was over 50 µg/mL in the test on KLPN 8852 [1]; over 50 µg/mL in the test with KLPN 27025 [2]; over 50 µg/mL in the test on KLPN 24076 [3]; 25 µg/mL with ACBA 1010 [4]; over 50 µg/mL in the test on KLPN 24076 [5]; over 50 µg/mL in the test with KLPN 27025 [6]. Further, the MIC in the test on KLPN 8852 [7] was over 50 µg/mL; with ACBA 1010 [8], 12.5 µg/mL. The “Synergy MIC” value worked out at 1 µg/mL in the test on KLPN 24076 [5] (setting [10]), 1 µg/mL in the test on KLPN 27025 [6] (setting [10]), 0.5 µg/mL in the test on KLPN 8852 [7] (setting [10]) and 1 µg/mL in the test with ACBA 1010 [8] (setting [10]).

As to `C[C@@H](O)[C@H]1C(=O)N2C(C(=O)O)=C(S[C@@H]3CN[C@H](CNS(N)(=O)=O)C3)[C@H](C)[C@H]12` [Doripenem, doripenem], the MIC in the test with KLPN 8852 [1] is over 50 µg/mL; in the test with KLPN 27025 [2] it was 25 µg/mL; in the test with KLPN 24076 [3], 25 µg/mL; in the test on ACBA 1010 [4], 0.195 µg/mL; in the test with KLPN 24076 [5], 25 µg/mL; with KLPN 27025 [6] it was 25 µg/mL. Also, the MIC in the test on KLPN 8852 [7] was over 50 µg/mL; in the test on ACBA 1010 [8], under 0.0975 µg/mL. Further, the “Synergy MIC” value in the test on KLPN 24076 [5] (setting [11]) was determined as 1 µg/mL; in the test with KLPN 27025 [6] (setting [11]), 0.007813 µg/mL; with KLPN 8852 [7] (setting [11]) it was 0.125 µg/mL; in the test with ACBA 1010 [8] (setting [11]), 0.007813 µg/mL.

As for `CC(C)[C@H](NC(=O)[C@H](CCCCN)NC(=O)[C@H](CCCNC(=N)N)NC(=O)CNC(=O)[C@@H](N)CCCNC(=N)N)C(=O)N[C@H](C(=O)N[C@@H](CCCNC(=N)N)C(=O)N[C@@H](CCCNC(=N)N)C(=O)NCCCC[C@H](NC(=O)[C@H](CCCNC(=N)N)NC(=O)[C@H](CCCNC(=N)N)NC(=O)[C@@H](NC(=O)[C@@H](NC(=O)[C@H](CCCCN)NC(=O)[C@H](CCCNC(=N)N)NC(=O)CNC(=O)[C@@H](N)CCCNC(=N)N)C(C)C)C(C)C)C(=O)N[C@@H](CCCCN)C(=O)O)C(C)C` [B2088, [RGRKVVRR)2KK]] (I: H-RGRKVVRRKK-OH / II: H-RGRKVVRR; amide I:9-II:C; N-terminus and C-terminus assumed), the “Monotherapy MIC” value in the test on KLPN 24076 [5] is 6.25 µg/mL; with KLPN 27025 [6], 6.25 µg/mL; in the test with KLPN 8852 [7] it was 25 µg/mL; in the test on ACBA 1010 [8], 6.25 µg/mL. For the same molecule, the “Synergy MIC” value with KLPN 24076 [5] (setting [11]) worked out at 1 µg/mL; in the test with KLPN 24076 [5] (setting [10]), 1 µg/mL; with KLPN 24076 [5] (setting [9]) it was 1 µg/mL; in the test with KLPN 27025 [6] (setting [11]), 0.01562 µg/mL; with KLPN 27025 [6] (setting [10]), 1 µg/mL; in the test on KLPN 27025 [6] (setting [9]), 0.0625 µg/mL. Also, the “Synergy MIC” value came to 0.25 µg/mL with KLPN 8852 [7] (setting [11]); 0.5 µg/mL with KLPN 8852 [7] (setting [10]); 1 µg/mL in the test on KLPN 8852 [7] (setting [9]); 0.0625 µg/mL in the test on ACBA 1010 [8] (setting [11]); 1 µg/mL in the test on ACBA 1010 [8] (setting [10]); 1 µg/mL in the test on ACBA 1010 [8] (setting [9]).

For `NCC[C@H](O)C(=O)N[C@@H]1C[C@H](N)[C@@H](O[C@H]2O[C@H](CN)[C@@H](O)[C@H](O)[C@H]2O)[C@H](O)[C@H]1O[C@H]1O[C@H](CO)[C@@H](O)[C@H](N)[C@H]1O` [Amikacin, amikacin], the MIC in the test on KLPN 8852 [1] came out at 6.25 µg/mL; with KLPN 27025 [2], 0.78 µg/mL; with KLPN 24076 [3], 1.56 µg/mL; in the test with ACBA 1010 [4], 1.56 µg/mL.

(Values after patent US20220133699A1, “Antibacterial Compositions” (Singapore Eye Research Institute, priority 2019, published 2022).)
